Assay results: PubChem BioAssay (NCI)
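All cell lines were grown in 96-well plates and treated with compound for 48 hours. TGI: total growth inhibition.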

What was measured:
Test in all cases: NCI-60 cell line screen, 48 h
U251 CNS = tested on: U251 CNS
SF-268 CNS = tested on: SF-268 CNS
HOP-92 NSCLC = tested on: HOP-92 NSCLC
MOLT-4 leukemia = tested on: MOLT-4 leukemia
HL-60(TB) leukemia = tested on: HL-60(TB) leukemia
KM12 colon = tested on: KM12 colon
SNB-75 CNS = tested on: SNB-75 CNS
HOP-62 NSCLC = tested on: HOP-62 NSCLC
IGROV1 ovarian = tested on: IGROV1 ovarian
K-562 leukemia = tested on: K-562 leukemia
A549 NSCLC = tested on: A549 NSCLC
MDA-MB-435 = tested on: MDA-MB-435
HCC-2998 colon = tested on: HCC-2998 colon
SNB-19 CNS = tested on: SNB-19 CNS
TK-10 renal = tested on: TK-10 renal
SF-539 CNS = tested on: SF-539 CNS
SN12C renal = tested on: SN12C renal
SK-MEL-5 melanoma = tested on: SK-MEL-5 melanoma
OVCAR-5 ovarian = tested on: OVCAR-5 ovarian
A498 renal = tested on: A498 renal

Row | Compound | TGI (U251 CNS) [µM] | TGI (SF-268 CNS) [µM] | TGI (HOP-92 NSCLC) [µM] | TGI (MOLT-4 leukemia) [µM] | TGI (HL-60(TB) leukemia) [µM] | TGI (KM12 colon) [µM] | TGI (SNB-75 CNS) [µM] | TGI (HOP-62 NSCLC) [µM] | TGI (IGROV1 ovarian) [µM] | TGI (K-562 leukemia) [µM] | TGI (A549 NSCLC) [µM] | TGI (MDA-MB-435) [µM] | TGI (HCC-2998 colon) [µM] | TGI (SNB-19 CNS) [µM] | TGI (TK-10 renal) [µM] | TGI (SF-539 CNS) [µM] | TGI (SN12C renal) [µM] | TGI (SK-MEL-5 melanoma) [µM] | TGI (OVCAR-5 ovarian) [µM] | TGI (A498 renal) [µM]
1 | Cc1ccc(C2=Nc3cccc4cccc(c34)N2)cc1 | > 100 | > 100 | > 100 | > 100 | > 100 | > 100 | > 100 | > 100 | > 100 | > 100 | > 100 | > 100 | > 100 | > 100 | > 100 | > 100 | > 100 | > 100 |  | 
2 | O=S(=O)(O)c1ccc(O)c2ncc(Cl)cc12 | > 100 |  | > 100 | > 100 |  | > 100 | > 100 | > 100 | > 100 | > 100 | > 100 | > 100 | > 100 | > 100 |  | > 100 | > 100 | > 100 | > 100 | > 100
3 | CC(C)(Br)C(Br)CCC(C)(Br)C(Br)CO (stereo not given) | > 10 | > 10 | > 10 | > 10 |  |  | > 10 | > 10 | > 10 | > 10 | > 10 | > 10 | > 10 | > 10 |  | > 10 | > 10 | > 10 |  | > 10
4 | O=C(/C=C/c1csc(-c2ccccc2)n1)NCc1ccc(C(=O)NCCc2ccccc2)cc1 | > 100 | > 100 | 36.8 | > 100 |  | > 100 | 8.31 | 6.86 | > 100 | > 100 | > 100 | > 100 | > 100 | 49.1 | 38.2 |  | > 100 | > 100 | > 100 | 64.8
5 | CC12CCC(CC1=O)C2(C)CCC(N)=O (stereo not given) | > 100 | > 100 |  | > 100 |  | > 100 |  | > 100 | > 100 | > 100 | > 100 | > 100 | > 100 | > 100 | > 100 |  | > 100 | > 100 | > 100 | > 100
6 | C/C(=N/NC(=S)Nc1ccc([N+](=O)[O-])cc1)c1cccc(/C(C)=N\NC(=S)Nc2ccc([N+](=O)[O-])cc2)n1 | 14.6 | > 100 | 11.6 |  |  | > 35.7 | > 44.3 | 11.1 | 8.11 | > 39.4 | 11.4 | > 38.7 | 21.5 | 17.8 | 15.7 | 2.28 | 14.4 | 7.29 | 21.7 | 9.74
7 | COc1ccc2nc(-n3c(/C=C/c4ccccc4O)nc4ccccc4c3=O)sc2c1 | > 100 | > 100 | > 100 | > 100 | > 100 | > 100 | > 100 | > 100 | > 100 | 59.6 | > 100 | 49.2 | > 100 | > 100 | > 100 |  |  | 66.2 | > 100 | > 100
8 | COc1ccc2c(C)cc(N/N=C(\C)C=O)nc2c1 | 30.4 | 41.1 | 25.1 | 15.9 |  | 25.8 | 29.8 | 27.1 | 33.5 | 5.05 | 38.6 | 25.5 | 24.5 | 31.6 | 30.1 | 20.3 | 26.8 | 26.7 | 28.2 | 27.9
9 | N=c1oc2c(Cl)cc(Cl)cc2cc1C(=O)Nc1cccc2ccccc12 | 7.01 | > 100 | 97.7 | > 37.5 | > 100 | > 100 | 10.9 | 42.3 | 40.6 | > 53.3 | > 100 | > 100 | > 59.6 | > 78.2 | 4.71 |  | 12.8 | > 100 | > 100 | 23.7
10 | CC(=O)N1C(=O)/C(=C\C(=O)c2ccc([N+](=O)[O-])cc2)c2ccccc21 | 46.4 | 49.2 |  | 51.6 |  | 55.5 | 49.6 | > 100 | 53.9 | 36.5 | > 100 | 61.2 | 36.7 | > 100 | 26.3 | 49.8 | 35 | > 100 | > 100 | > 100
11 | COC(=O)c1ccccc1CC1Cc2ccc3c(c2C1=O)CCC3 (stereo not given) | > 100 | > 100 | 94.9 | > 100 | 84.8 | > 100 | 80.7 | > 100 | > 100 | > 100 | > 100 | 78.7 | > 100 | > 100 | > 100 | > 100 | > 100 | 62.3 | > 100 | 
12 | CCOP(=O)(OCC)C1CC(O)C(=O)N1 (stereo not given) | > 100 | > 100 |  | > 100 |  | > 100 | > 100 | > 100 | > 100 | > 100 | > 100 | > 100 |  | > 100 | > 100 |  | > 100 | > 100 | > 100 | > 100
13 | CCN(CC)CCCNc1nc(=O)[nH]c(C)c1C(=O)Nc1cccc2cc3ccccc3cc12 | > 100 |  | > 100 | > 100 | > 100 | > 100 | > 100 | > 100 | > 100 | > 100 | > 100 | > 100 | > 100 | > 100 | > 100 | > 100 | > 100 | > 100 | > 100 | 
